Reference: ChEMBL document CHEMBL1201862, “PubChem BioAssay data set” (2004)
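The compound was tested at five concentrations on cells cultured in 96-well plates, with a 48-hour exposure period. GI50 is the concentration that inhibits growth by half.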 Calls of active or inactive are those of the source. Rule as the data show it: active = GI50 up to about 1.1 µM and inactive = higher.

Columns and labels:
Experiment in all cases: NCI-60 cell line screen, 48 h
NCI-H460 = test system: NCI-H460
SK-MEL-2 = test system: SK-MEL-2
OVCAR-5 = test system: OVCAR-5
NCI-H522 = test system: NCI-H522
OVCAR-3 = test system: OVCAR-3
UACC-62 = test system: UACC-62
CCRF-CEM = test system: CCRF-CEM
HOP-92 = test system: HOP-92
COLO 205 = test system: COLO 205
NCI-H226 = test system: NCI-H226
K562 = test system: K562
SK-OV-3 = test system: SK-OV-3
SK-MEL-28 = test system: SK-MEL-28
EKVX = test system: EKVX
Malme-3M = test system: Malme-3M
RPMI-8226 = test system: RPMI-8226
HOP-62 = test system: HOP-62
SR = test system: SR

Structure (SMILES)	GI50 (NCI-H460)	GI50 (SK-MEL-2)	GI50 (OVCAR-5)	GI50 (NCI-H522)	GI50 (OVCAR-3)	GI50 (UACC-62)	GI50 (CCRF-CEM)	GI50 (HOP-92)	GI50 (COLO 205)	GI50 (NCI-H226)	GI50 (K562)	GI50 (SK-OV-3)	GI50 (SK-MEL-28)	GI50 (EKVX)	GI50 (Malme-3M)	GI50 (RPMI-8226)	GI50 (HOP-62)	GI50 (SR)
COC(=O)/C(C#N)=C1\CCc2ccccc21	> 100 µM (inactive)	> 100 µM (inactive)	> 100 µM (inactive)	> 100 µM (inactive)	> 100 µM (inactive)	> 100 µM (inactive)	> 100 µM (inactive)	> 100 µM (inactive)	> 100 µM (inactive)	> 100 µM (inactive)	> 100 µM (inactive)	> 100 µM (inactive)	> 100 µM (inactive)	> 100 µM (inactive)	> 100 µM (inactive)	> 100 µM (inactive)	–	–
CCOC(=O)CN.CCOC(=O)Nc1ccc(S(=O)(=O)OC)cc1.CCOC(=O)Nc1ccc(S(=O)(=O)OC)cc1	17.8 µM (inactive)	> 50 µM (inactive)	> 50 µM (inactive)	–	> 50 µM (inactive)	> 50 µM (inactive)	> 50 µM (inactive)	> 50 µM (inactive)	> 50 µM (inactive)	> 50 µM (inactive)	> 50 µM (inactive)	> 50 µM (inactive)	> 50 µM (inactive)	> 50 µM (inactive)	> 50 µM (inactive)	> 50 µM (inactive)	> 50 µM (inactive)	–
Cn1ccc(=NS(=O)(=O)c2ccccc2)cc1	> 100 µM (inactive)	> 100 µM (inactive)	> 100 µM (inactive)	> 100 µM (inactive)	> 100 µM (inactive)	–	> 100 µM (inactive)	> 100 µM (inactive)	> 100 µM (inactive)	–	> 100 µM (inactive)	> 100 µM (inactive)	> 100 µM (inactive)	> 100 µM (inactive)	> 100 µM (inactive)	> 100 µM (inactive)	> 100 µM (inactive)	–
Nc1nc(O)c2c(ncn2CCO)n1	> 100 µM (inactive)	> 100 µM (inactive)	> 100 µM (inactive)	–	> 100 µM (inactive)	> 100 µM (inactive)	> 100 µM (inactive)	> 100 µM (inactive)	> 100 µM (inactive)	> 100 µM (inactive)	–	> 100 µM (inactive)	> 100 µM (inactive)	> 100 µM (inactive)	> 100 µM (inactive)	> 100 µM (inactive)	> 100 µM (inactive)	> 100 µM (inactive)
CC(C(=O)c1ccc(O)cc1)C1(O)C(=O)Nc2c(Cl)cc(Cl)cc21 (stereo not drawn)	> 86.1 µM (inactive)	> 100 µM (inactive)	> 100 µM (inactive)	23.1 µM (inactive)	31.6 µM (inactive)	14 µM (inactive)	26.6 µM (inactive)	> 100 µM (inactive)	> 100 µM (inactive)	19.1 µM (inactive)	2.56 µM (inactive)	> 100 µM (inactive)	31.1 µM (inactive)	49.3 µM (inactive)	> 100 µM (inactive)	25.6 µM (inactive)	> 100 µM (inactive)	–
O=C1c2cccc(O)c2C(=O)c2cccc(O)c21 [ANTHRARUFIN]	> 100 µM (inactive)	> 100 µM (inactive)	> 100 µM (inactive)	> 100 µM (inactive)	> 100 µM (inactive)	> 100 µM (inactive)	> 100 µM (inactive)	> 100 µM (inactive)	> 100 µM (inactive)	> 100 µM (inactive)	> 100 µM (inactive)	–	–	> 100 µM (inactive)	–	> 100 µM (inactive)	> 100 µM (inactive)	–
CC(C)(C)c1cc2c3c(c1)C(C(F)(F)F)(C(F)(F)F)O[Te]3(C)OC2(C(F)(F)F)C(F)(F)F	> 100 µM (inactive)	> 100 µM (inactive)	> 100 µM (inactive)	> 100 µM (inactive)	> 100 µM (inactive)	> 100 µM (inactive)	> 100 µM (inactive)	–	> 100 µM (inactive)	> 100 µM (inactive)	> 100 µM (inactive)	> 100 µM (inactive)	> 100 µM (inactive)	> 100 µM (inactive)	> 100 µM (inactive)	> 100 µM (inactive)	> 100 µM (inactive)	> 100 µM (inactive)
C#CCOCn1cnc2c(Sc3c([N+](=O)[O-])ncn3C)ncnc21	> 100 µM (inactive)	> 100 µM (inactive)	> 100 µM (inactive)	48.3 µM (inactive)	> 100 µM (inactive)	> 100 µM (inactive)	97.7 µM (inactive)	> 100 µM (inactive)	> 100 µM (inactive)	> 100 µM (inactive)	> 100 µM (inactive)	> 100 µM (inactive)	> 100 µM (inactive)	> 100 µM (inactive)	> 100 µM (inactive)	> 100 µM (inactive)	> 100 µM (inactive)	–
COc1ccc2nc3c(C(=O)NCCN(C)C)cccc3nc2c1	–	6.21 µM (inactive)	11.2 µM (inactive)	–	10.2 µM (inactive)	5.55 µM (inactive)	5.55 µM (inactive)	4.34 µM (inactive)	4.28 µM (inactive)	6.85 µM (inactive)	5 µM (inactive)	9.04 µM (inactive)	8.3 µM (inactive)	3.86 µM (inactive)	–	–	7.23 µM (inactive)	–
Cc1cc(NCCCCCCCCNc2cc(C)nc3cc(N)ccc23)c2ccc(N)cc2n1	15.7 µM (inactive)	13.6 µM (inactive)	22.5 µM (inactive)	3.78 µM (inactive)	14.9 µM (inactive)	17 µM (inactive)	3.13 µM (inactive)	–	6.4 µM (inactive)	24.4 µM (inactive)	1.95 µM (inactive)	38.5 µM (inactive)	19.9 µM (inactive)	22.2 µM (inactive)	–	6.68 µM (inactive)	26.9 µM (inactive)	10.9 µM (inactive)
Cc1ccc(O)c(C(=O)CCCC(=O)c2cc(C)ccc2O)c1	> 100 µM (inactive)	> 100 µM (inactive)	> 100 µM (inactive)	63.8 µM (inactive)	–	> 100 µM (inactive)	> 100 µM (inactive)	61 µM (inactive)	> 100 µM (inactive)	> 100 µM (inactive)	35 µM (inactive)	> 100 µM (inactive)	> 100 µM (inactive)	> 100 µM (inactive)	> 100 µM (inactive)	> 100 µM (inactive)	> 100 µM (inactive)	–
CCCCCCCCCC1C(C)c2c([nH]c3ccccc23)C2C(=O)N(c3ccccc3)C(=O)C21 (stereo not drawn)	4.18 µM (inactive)	16.8 µM (inactive)	17.4 µM (inactive)	–	3.43 µM (inactive)	18.3 µM (inactive)	3.1 µM (inactive)	–	–	12.2 µM (inactive)	3.67 µM (inactive)	18.2 µM (inactive)	2.29 µM (inactive)	54 µM (inactive)	41.9 µM (inactive)	3.83 µM (inactive)	17.2 µM (inactive)	–
N#Cc1c2nc3ccccc3nc2n2ccccc12	> 100 µM (inactive)	> 100 µM (inactive)	> 100 µM (inactive)	> 100 µM (inactive)	> 100 µM (inactive)	> 100 µM (inactive)	> 100 µM (inactive)	–	> 100 µM (inactive)	–	> 100 µM (inactive)	0.63 µM (active)	> 100 µM (inactive)	> 100 µM (inactive)	> 100 µM (inactive)	> 100 µM (inactive)	> 100 µM (inactive)	> 100 µM (inactive)
